Data published in US20240343704A1, “HALO-SUBSTITUTED AMINO PYRIDINE COMPOUNDS AS INHIBITORS OF THE HAEMATOPOIETIC PROGENITOR KINASE 1 (HPK1)” (priority 2021, published 2024).

biological target: T1, Recombinant (1-346) HPK1 (h) (Homo sapiens, UniProt Q92918); test: HPK1 Human STE Kinase Enzymatic Radiometric Assay; type: biochemical; conditions: read-out: HPK1 IC50 nM Range*
T1 construct: Recombinant (1-346) HPK1 (h) is incubated with 8 mM MOPS pH 7.0
T1 sequence (Q92918 1-346): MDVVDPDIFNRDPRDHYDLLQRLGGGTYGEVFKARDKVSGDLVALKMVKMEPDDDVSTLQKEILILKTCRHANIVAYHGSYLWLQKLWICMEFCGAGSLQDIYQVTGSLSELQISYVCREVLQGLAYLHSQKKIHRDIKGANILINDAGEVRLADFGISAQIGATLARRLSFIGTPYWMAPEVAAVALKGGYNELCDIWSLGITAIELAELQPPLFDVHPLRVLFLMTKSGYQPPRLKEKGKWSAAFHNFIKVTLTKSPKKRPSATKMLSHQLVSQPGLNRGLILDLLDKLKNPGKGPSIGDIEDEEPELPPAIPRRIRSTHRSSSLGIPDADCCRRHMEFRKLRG
Method: A stock solution of 10 mM of test compound is prepared in DMSO. The compound plate was prepared by 3-fold and 9-point serial dilutions. […] The reaction is initiated by The addition of the Mg/ATP mix. After incubation for 40 minutes at RT, the reaction is stopped by the addition of phosphoric acid to a concentration of 0.5%.

SMILES	IC50 [nM]
CN(C)Cc1cc(-c2cc(-c3ccc4c(c3)CCNC4=O)c(N)nc2F)c(F)c(F)c1N1CCOCC1 [I-623, 6-(2-amino-5-(5-((dimethylamino)methyl)-2,3-difluoro-4-morpholinophenyl)-6-fluoropyridin-3-yl)-3,4-dihydroisoquinolin-1(2H)-one]	11 to 100
CC(c1cc(-c2cc(-c3ccc4c(c3)CCNC4=O)c(N)nc2F)ccc1O)N(C)C (stereo not shown) [I-624, 6-(2-amino-5-(3-(1-(dimethylamino)ethyl)-4-hydroxyphenyl)-6-fluoropyridin-3-yl)-3,4-dihydroisoquinolin-1(2H)-one]	11 to 100
CC(C)(N)c1cc(-c2cc(-c3ccc4c(c3)CCNC4=O)c(N)nc2F)ccc1F [I-625, 6-(2-amino-5-(3-(2-aminopropan-2-yl)-4-fluorophenyl)-6-fluoropyridin-3-yl)-3,4-dihydroisoquinolin-1(2H)-one]	101 to 1000
Cc1c[nH]c(=O)c2ccc(-c3cc(-c4ccc(F)c(CN(C)C)c4)c(F)nc3N)cc12 [I-626, 6-(2-amino-5-(3-((dimethylamino)methyl)-4-fluorophenyl)-6-fluoropyridin-3-yl)-4-methylisoquinolin-1(2H)-one]	101 to 1000
Cc1c[nH]c(=O)c2ccc(-c3cc(-c4cccc(CN(C)C)c4)c(F)nc3N)cc12 [I-627, 6-(2-amino-5-(3-((dimethylamino)methyl)phenyl)-6-fluoropyridin-3-yl)-4-methylisoquinolin-1(2H)-one]	101 to 1000
Cc1c[nH]c(=O)c2ccc(-c3cc(-c4ccc5c(c4)[C@H](N(C)C)CCO5)c(F)nc3N)cc12 [I-628, (R)-6-(2-amnio-5-(4-(dimethylamino)chroman-6-yl)-6-fluoropyridin-3-yl)-4-methylisoquinolin-1(2H)-one]	11 to 100
Cc1c[nH]c(=O)c2ccc(-c3cc(-c4ccc5c(c4)[C@H](N(C)C)CO5)c(F)nc3N)cc12 [I-629, (S)-6-(2-amino-5-(3-(dimethylamino)-2,3-dihydrobenzofuran-5-yl)-6-fluoropyridin-3-yl)-4-methylisoquinolin-1(2H)-one]	101 to 1000
CN(C)[C@@H]1COc2ccc(-c3cc(-c4ccc5c(=O)[nH]cc(F)c5c4)c(N)nc3F)cc21 [I-630, (S)-6-(2-amino-5-(3-(dimethylamino)-2,3-dihydrobenzofuran-5-yl)-6-fluoropyridin-3-yl)-4-fluoroisoquinolin-1(2H)-one]	11 to 100
CN(C)[C@@H]1CCOc2ccc(-c3cc(-c4ccc5c(=O)[nH]cc(F)c5c4)c(N)nc3F)cc21 [I-631, (R)-6-(2-amino-5-(4-(dimethylamino)chroman-6-yl)-6-fluoropyridin-3-yl)-4-fluoroisoquinolin-1(2H)-one]	11 to 100
COc1ccc(-c2cc(-c3ccc4c(c3)CCNC4=O)c(N)nc2F)cc1C#N [I-632, 5-(6-amino-2-fluoro-5-(1-oxo-1,2,3,4-tetrahydroisoquinolin-6-yl)pyridin-3-yl)-2-methoxybenzonitrile]	11 to 100
CCN(C)Cc1cc(-c2cc(-c3ccc4c(=O)[nH]cc(F)c4c3)c(N)nc2F)ccc1OC [I-633, 6-(2-amino-5-(3-((ethyl(methyl)amino)methyl)-4-methoxyphenyl)-6-fluoropyridin-3-yl)-4-fluoroisoquinolin-1(2H)-one]	11 to 100
CCN(C)Cc1cc(-c2cc(-c3ccc4c(=O)[nH]cc(C)c4c3)c(N)nc2F)ccc1OC [I-634, 6-(2-amino-5-(3-((ethyl(methyl)amino)methyl)-4-methoxyphenyl)-6-fluoropyridin-3-yl)-4-methylisoquinolin-1(2H)-one]	11 to 100
CC(C)N1CCN(c2ccc(-c3cc(-c4cc(F)c5c(c4)CNC5=O)c(N)nc3F)cc2)CC1 [I-637, 5-(2-amino-6-fluoro-5-(4-(4-isopropylpiperazin-1-yl)phenyl)pyridin-3-yl)-7-fluoroisoindolin-1-one]	11 to 100
Cn1cnnc1CC1(c2cccc(-c3cc(-c4ccc5c(c4)CCNC5=O)c(N)nc3F)c2)COC1 [I-638, 6-(2-amino-6-fluoro-5-(3-(3-((4-methyl-4H-1,2,4-triazol-3-yl)methyl)oxetan-3-yl)phenyl)pyridin-3-yl)-3,4-dihydroisoquinolin-1(2H)-one]	101 to 1000
CC(C)N1CCN(c2ccc(-c3ccc(Nc4ccc5c(c4)CCNC5=O)nc3F)cc2)CC1 [I-639, 6-((6-fluoro-5-(4-(4-isoproylpiperazin-1-yl)phenyl)pyridin-2-yl)amino)-3,4-dihydroisoquinolin-1(2H)-one]	> 1000
CN1CCC[C@H]1c1cc(-c2cc(-c3ccc4c(c3)CCNC4=O)c(N)nc2F)ccc1C1CCOCC1 [I-642, (S)-6-(2-amino-6-fluoro-5-(3-(1-methylpyrrolidin-2-yl)-4-(tetrahydro-2H-pyran-4-yl)phenyl)pyridin-3-yl)-3,4-dihydroisoquinolin-1(2H)-one]	11 to 100
Cc1nc2cc(-c3cc(-c4ccc(C5CCOCC5)c([C@@H]5CCCN5)c4)c(F)nc3N)ccc2c(=O)[nH]1 [I-643, (S)-7-(2-amino-6-fluoro-5-(3-(pyrrolidin-2-yl)-4-(tetrahydro-2H-pyran-4-yl)phenyl)pyridin-3-yl)-2-methylquinazolin-4(3H)-one]	11 to 100

Next, values leading:

IC50 [nM]	SMILES
11 to 100	CN(Cc1cc(-c2cc(-c3cc4c(cc3F)C(=O)NCC4)c(N)nc2F)ccc1N1CCOCC1)CC1CCCO1 (stereo not shown) [I-619, 6-(2-amino-6-fluoro-5-(3-((methyl((tetrahydrofuran-2-yl)methyl)amino)methyl)-4-morpholinophenyl)pyridin-3-yl)-7-fluoro-3,4-dihydroisoquinolin-1(2H)-one]
0.1 to 10	CN(C)Cc1cc(-c2cc(-c3ccc4c(c3)CCNC4=O)c(N)nc2F)ccc1C1CCOC1 (stereo not shown) [I-620, 6-(2-amino-5-(3-((dimethylamino)methyl)-4-(tetrahydrofuran-3-yl)phenyl)-6-fluoropyridin-3-yl)-3,4-dihydroisoquinolin-1(2H)-one]
11 to 100	CN(C)Cc1cc(-c2cc(-c3cc4c(cc3F)C(=O)NCC4)c(N)nc2F)ccc1C1CCOC1 (stereo not shown) [I-621, 6-(2-amino-5-(3-((dimethylamino)methyl)-4-(tetrahydrofuran-3-yl)phenyl)-6-fluoropyridin-3-yl)-7-fluoro-3,4-dihydroisoquinolin-1(2H)-one]
11 to 100	CN(C)Cc1cc(-c2cc(-c3ccc4c(c3)CCNC4=O)c(N)nc2F)c(F)cc1N1CCOCC1 [I-622, 6-(2-amino-5-(5-((dimethylamino)methyl)-2-fluoro-4-morpholinophenyl)-6-fluoropyridin-3-yl)-3,4-dihydroisoquinolin-1(2H)-one]
0.1 to 10	Nc1nc(F)c(-c2ccc(N3CCN(CC4CC4)CC3)cc2)cc1-c1cc(F)c2c(c1)OCCNC2=O [I-635, 8-(2-amino-5-(4-(4-(cyclopropylmethyl)piperazin-1-yl)phenyl)-6-fluoropyridin-3-yl)-6-fluoro-3,4-dihydrobenzo[f][1,4]oxazepin-5(2H)-one]
0.1 to 10	CC(C)N1CCN(c2ccc(-c3cc(-c4cc(F)c5c(c4)OCCNC5=O)c(N)nc3F)cc2)CC1 [I-636, 8-(2-amino-6-fluoro-5-(4-(4-isopropylpiperazin-1-yl)phenyl)pyridin-3-yl)-6-fluoro-3,4-dihydrobenzo[f][1,4]oxazepin-5(2H)-one]
0.1 to 10	Nc1nc(F)c(-c2ccc(N3CCN(CC4CC4(F)F)CC3)cc2)cc1-c1ccc2c(c1)CCNC2=O (stereo not shown) [I-640, 6-(2-amino-5-(4-(4-((2,2-difluorocyclopropyl)methyl)piperazin-1-yl)phenyl)-6-fluoropyridin-3-yl)-3,4-dihydroisoquinolin-1(2H)-one]
0.1 to 10	Nc1nc(F)c(-c2ccc(N3CCN(CCCC(F)F)CC3)cc2)cc1-c1ccc2c(c1)CCNC2=O [I-641, 6-(2-amino-5-(4-(4-(4,4-difluorobutyl)piperazin-1-yl)phenyl)-6-fluoropyridin-3-yl)-3,4-dihydroisoquinolin-1(2H)-one]
0.1 to 10	Nc1nc(F)c(-c2ccc(N3CCN(CCC4CC4(F)F)CC3)cc2)cc1-c1ccc2c(c1)CCNC2=O (stereo not shown) [I-644, 6-(2-amino-5-(4-(4-(2-(2,2-difluorocyclopropyl)ethyl)piperazin-1-yl)phenyl)-6-fluoropyridin-3-yl)-3,4-dihydroisoquinolin-1(2H)-one]
0.1 to 10	CN(C)Cc1cc(-c2cc(-c3ccc4c(c3)CCNC4=O)c(N)nc2F)ccc1C1CCOCC1 [I-645, 6-(2-amino-5-(3-((dimethylamino)methyl)-4-(tetrahydro-2H-pyran-4-yl)phenyl)-6-fluoropyridin-3-y)-3,4-dihydroisoquinolin-1(2H)-one]
0.1 to 10	Nc1nc(F)c(-c2cccc([C@@H]3CCCN3)c2)cc1-c1ccc2c(c1)CCNC2=O [I-646, (S)-6-(2-amino-6-fluoro-5-(3-(pyrrolidin-2-yl)phenyl)pyridin-3-yl)-3,4-dihydroisoquinolin-1(2H)-one]
